Laboratory results from patent publication US20190367449A1, “PHENYLCREATINE, ITS USE AND METHOD FOR ITS PRODUCTION” (priority 2017, published 2019).

Legend:
[1] = test system: children and adults with craniocerebral trauma (CCT); details: six months, 400 mg/kg of body weight, cited from earlier work
[2] = test system: healthy men, having a sedentary lifestyle; details: loading protocol followed by 11-week maintenance; for 4-12 weeks; cited from earlier work
untrained subjects = details: creatine in combination with carbohydrates, 5 days before and 14 days after training; cited from earlier work
[3] = test system: craniocerebral trauma in rats and mice; details: cited from earlier work
[4] = Stability of phenylcreatine compared to creatine in blood serum (RP-HPLC peak areas); format: in vitro ADME, human
Method: The study of the stability of phenylcreatine and creatine in aqueous solution and in human blood was carried out as follows. For the preparation of solutions of test substances on an analytical balance the exactly weighed phenylcreatine and creatine were taken. The calculated amount of double-distilled water was added to them to obtain a concentration of 1 mg/ml. A part of the solution was diluted 10 times, and the sample was immediately analyzed. Further, that solution was kept at room temperature and after 3 hours the analysis was repeated. Further according to the method described in Dunnett, Harris & Orme (1991) Reverse phase ion-pairing high performance liquid chromatography of phosphocreatine, creatine and creatinine in equine muscle. Scand. J. Clin. Lab. Invest. 51, 137-141, page 139, aliquot (c), creatinine, creatine and phosphocreatine were removed from the samples used for obtaining of the blood serum for mixing, to obtain more accurate results. 1 ml of water or prepared according to the method above blood serum was added to 200 μl of a solution in water of initial substance with a concentration of 2-3 mg/ml, shaken and a sample of 200 μl volume was immediately taken and initial concentration was analyzed. Then the solution was placed in a vibration thermostat at 37° C. and an aliquot of 200 μl was taken in 0.5, 1 and 3 hours of incubation. 20 μl of a 10% solution of trichloroacetic acid was added to the selected sample and kept for 15 min at a temperature of minus 24° C., centrifuged at 6000 g for 5 min to precipitate the plasma proteins, supernatant was collected and its analysis was conducted. The study of the stability of phenylcreatine compared to creatine in an aqueous solution and blood was carried out using reversed-phase HPLC using a chromatographic system Agilent 1220 Infinity LC System (USA). To assess the stability of the analytes, the peak areas of the compounds were compared at the beginning of the experiment and at selected intervals (Table 2).

[5] = test system: adrenal arrhythmia (extrasystole) in rats; assay: Model of adrenal arrhythmia (extrasystole) in rats; format: in vivo
Text: One of the most important factors of arrhythmogenesis and the appearance of extrasystoles is the activation of the sympathoadrenal system. This circumstance determined the necessity of investigating phenylcreatine, proposed by the author of the present invention, on the model of adrenal arrhythmia (extrasystole) in rats (Kushakovsky M S, Heart arrhythmias: a guide for physicians, St. Petersburg, Hippocrates 1992).
In a control series of experiments, in all animals, 12 seconds after injection of epinephrine hydrochloride at a dose of […], polytopic ventricular extrasystole occurred in all animals. The number of ventricular extrasystoles before transition to tachycardia averaged 32±6. The duration of such arrhythmias was 80±21 seconds. In 50% of cases, it passed into the ventricular tachycardia. The duration of tachycardia was, on average, 86±12 seconds.
With the introduction of phenylcreatine, proposed by the present inventor in an amount of 20 mg per animal, half an hour before adrenaline hydrochloride, the number of ventricular extrasystoles was 12±4. The duration of the arrhythmia was 60±14 seconds.

male Wistar rats = assay: Nootropic action in a shuttle maze, old rats; format: in vivo; details: old rats 25 months
Method: The experiments were performed on male Wistar rats born in September 2014 (experiments were conducted in November 2016). The animals were kept in standard plastic cells at an air temperature of 21-23° C. They received a balanced granular food and drinking water without restrictions. The work was carried out in compliance with the principles of the Helsinki Declaration on Humane Treatment of Animals.
Rats were divided into 2 groups. The rats of the first test group received 10 mg of phenylcreatine per animal daily for a month with drinking water. The rats of the second test group received water. As a control in the experiment, rats born in May 2016 (the third group, young rats) were used.
In the experiment, a shuttle maze was used to evaluate neuropsychiatric processes, primarily cognitive processes (Navakatikyan M A, Platonov L L, 1988). At the end of the labyrinth there was a food reinforcement (a piece of cheese with a mass of 200 mg).
The time of the experiment to find the exit from the labyrinth was 5 minutes. During the experiment, the time of passing the labyrinth, the number of rats reaching the end of the labyrinth, the number of vertical racks were recorded.

[6] = Negative effects in all the studies conducted; format: in vivo
Text: It should also be noted that, with all the studies conducted, the negative effects of phenylcreatine according to the invention were not detected, which indicates its safety.

white mongrel mice = assay: Endurance of mice in the treadmill test (running to complete exhaustion); format: in vivo
[7] = test system: supraventricular extrasystoles; assay: Holter monitoring of supraventricular extrasystoles in a person taking phenylcreatine; format: in vivo, human; details: 2 mg per 1 kg per day for 14 days
Method: Additionally, the following study was carried out. Professional […] (15 years of experience in power triathlon). Supraventricular extrasystoles with a frequency of 4 times in 24 hours were observed according to holter monitoring. Extrasystoles were very poorly tolerated, there were complaints of discomfort and a decrease in the quality of life (neurosis-like condition). They took phenylcreatine in an amount of 2 mg per 1 kg per day, for 14 days.

[8] = 0 h, initial, peak area relative to the beginning of the experiment

CN(CC(=O)O)C(=N)N [creatine, 2-(methylguanine)-ethane acid]
Frequency of fatigue ([1]; reduced from 82.4%): 11.1%
Frequency of dizziness ([1]; reduced from 88.9 percent): 43.8%
Frequency of headaches ([1]; reduced from 93.8%): 11.1%
Reduction of the glucose response in glucose tolerance test [2]: 11-22%
Isokinetic muscle strength, greater than with carbohydrates only (untrained subjects): 10%
Isometric muscle strength, greater than with carbohydrates only (untrained subjects): 21%
Subsequent injuries ([3]; dietary consumption of 1% creatine for four weeks): halved
Reduction of the severity of craniocerebral trauma ([3]; injections of creatine 3 g/kg for up to five days before trauma): 3-36%
Stability in a blood serum [4, 8]: 100%
Stability in a blood serum ([4]; 0.5 h incubation at 37° C.): 98%
Stability in a blood serum ([4]; 1 h incubation at 37° C.): 67%
Stability in a blood serum ([4]; 3 h incubation at 37° C.): 52%

N=C(N)N(CC(=O)O)Cc1ccccc1 [phenylcreatine, N-benzyl-N-carbamimidoylglycine]
Number of ventricular extrasystoles ([5]; 20 mg per animal half an hour before adrenaline hydrochloride, control 32±6): 12±4
Duration of the arrhythmia ([5]; 20 mg per animal half an hour before adrenaline hydrochloride, control 80±21): 60 ± 14 s
Transition to tachycardia ([5]; 20 mg per animal, control 50% of cases): no transition to tachycardia
Number of vertical rearings per minute (male Wistar rats; 10 mg per animal daily for a month with drinking water, untreated old rats 2±0.56): 1.2±0.44
The transit time of the labyrinth (male Wistar rats; 10 mg per animal daily for a month, untreated old rats 5±0.42): 2 ± 0.22 min
The number of rats reaching the end of the labyrinth in 5 minutes (male Wistar rats; 10 mg per animal daily for a month, untreated old rats 10%): 50%
Negative effects [6]: not detected
Effect on endurance in the absence of sleep (white mongrel mice): persisted even in the absence of sleep
Stability in a blood serum [4, 8]: 100%
Stability in a blood serum ([4]; 0.5 h incubation at 37° C.): 100%
Stability in a blood serum ([4]; 1 h incubation at 37° C.): 99%
Stability in a blood serum ([4]; 3 h incubation at 37° C.): 96%
Concentration in the blood (in words) ([4]; for 3 hours): remained practically unchanged
Holter monitoring within 3 months after the course [7]: does not fix supraventricular extrasystoles
Extrasystoles after the course ([7]; before: 4 times in 24 hours): extrasystoles completely disappeared
